Experiments:
[1] = Brain exposure pharmacokinetics in rats; type: in vivo; conditions: male Sprague Dawley rats, oral gavage 10 mg/kg
Procedure: The brain exposure of exemplary compounds, e.g., 1, 2, and 4 were evaluated in male Sprague Dawley rats after oral gavage administration at 10 mg/kg. The formulation was 5% DMSO+10% PEG400 in saline. Rats were fasted overnight with food returned 4 hours post-dose. CSF was collected by direct needle puncture into the cisterna magna.
For both rat and mouse studies, brain tissue was washed with 3 volumes of saline prior to homogenization. Brain tissue was homogenized with 3 volumes (v/w) of phosphate buffered saline. Plasma, brain homogenate, and CSF samples (rat only) were analyzed by LC-MS/MS and the concentration of test compound at each time point was determined by linear regression.
Pharmacokinetic parameters were calculated from the plasma, brain, and CSF concentrations by non-compartmental modeling using WinNonlin 8.2.

TYK2-JH2 = target: T1, TYK2-JH2 (Homo sapiens, UniProt P29597); test: TYK2-JH2 HTRF binding assay (ligand efficiency); conditions: calculated from binding-assay IC50 (Equation 1)
T1 construct: TYK JH2 enzyme mix (ChemPartner: CP20210818A-BV); purchased ChemPartner CP20210818A-BV
In short: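 HTRF competition binding: 0.5 nM His-tagged TYK2 JH2 preincubated 10 min at room temperature with compound (final 0.1 to 0.000005 μM), then 35 nM tracer and anti-6HIS Tb cryptate added for 60 min. Buffer 20 mM HEPES pH 7.5, 10 mM MgCl2, 0.01% Triton X-100, 1 mM DTT; TR-FRET Ex340/Em495/520. Ligand efficiency derived from binding IC50.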

T1 sequence (P29597 589-875 limits assumed): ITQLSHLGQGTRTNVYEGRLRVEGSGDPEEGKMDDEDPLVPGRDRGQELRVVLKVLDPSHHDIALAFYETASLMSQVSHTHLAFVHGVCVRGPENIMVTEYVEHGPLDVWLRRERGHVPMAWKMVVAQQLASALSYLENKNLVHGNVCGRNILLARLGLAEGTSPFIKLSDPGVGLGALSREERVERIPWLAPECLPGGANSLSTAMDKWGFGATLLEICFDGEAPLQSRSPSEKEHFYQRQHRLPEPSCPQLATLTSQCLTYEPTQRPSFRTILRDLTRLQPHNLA

SMILES	Brain Kpu, u [1]	Ligand Efficiency (TYK2-JH2)
C[C@@H](c1ccc(Nc2cc(Nc3ncc(F)cc3S(C)(=O)=O)ncn2)nc1)N1CC2(COC2)C1 [Compound 2, (S)—N^4-(5-(1-(2-oxa-6-azaspiro[3.3]heptan-6-yl)ethyl)pyridin-2-yl)-N^6-(5-fluoro-3-(methylsulfonyl)pyridin-2-yl)pyrimidine-4,6-diamine]	† († <0.1 u)	††† (†††: >0.39)
C[C@@H](c1ccc(Nc2cc(Nc3ncccc3S(C)(=O)=O)ncn2)nc1)N1CC2(COC2)C1 [Compound 1, (S)—N^4-(5-(1-(2-oxa-6-azaspiro[3.3]heptan-6-yl)ethyl)pyridin-2-yl)-N^6-(3-(methylsulfonyl)pyridin-2-yl)pyrimidine-4,6-diamine]	†† (†† 0.1-0.2 u)	††† (†††: >0.39)
